{"source": "patent US10463659B2", "about": "“Multi-arm polymer prodrugs” (priority 2003, dated 2019)", "key": {"DU-145 prostate tumors": {"tested_on": "DU-145 prostate tumors", "assay": "DU-145 prostate tumor xenograft, PEG-docetaxel vs docetaxel", "format": "in vivo, mice", "details": "DU-145, two doses (q7 d×2)"}, "[1]": {"assay": "DU-145 prostate tumor xenograft, PEG-docetaxel vs docetaxel", "format": "in vivo, mice", "details": "NCr nu/nu, mouse, in vivo, intravenous; DU-145 study, q7 d×2; read-out: tolerated dose (maximum tolerated dose)"}, "in vivo": {"assay": "in vivo", "details": "NCr nu/nu, mouse", "quoted_text": "Human NCl-H460 lung tumors (30 to 40 fragments of each) were implanted subcutaneously in the mice (Charles Rivers Labs: NCr nu/nu) near the right axillary area.\nThe animals were randomized into groups in a manner such that the median tumor weights on the first day of treatment were as close to each other as possible.\nThe mice received 1 or 2 intravenous doses of test compound or vehicle (saline).\nThe animals were weighed and the tumors measured twice weekly after administration of the first injection. The tumor volume was measured by caliper measurements (mm) and using the formula of an ellipsoid sphere: L×W^2/2=mm^3, where L and W refer to the larger and smaller perpendicular dimensions collected at each measurement. This formula was also used to calculate tumor weight assuming unit density (1 mm^3=1 mg).\nAny animal found moribund or any animal whose tumor reached 4000 mg, ulcerated or was sloughed off was euthanized prior to study termination."}, "MCF-7 breast tumor cells": {"tested_on": "MCF-7 breast tumor cells", "assay": "MCF-7 breast tumor xenograft, 4-arm-PEG-gly-irino-20K vs irinotecan", "format": "in vivo, Female athymic (Nu:Nu) mice", "details": "for Days to 4 Times Tumor Size: median; for Tumor Regression Complete / Tumor Regression Partial: n=10", "experimental": "Female athymic (Nu:Nu) mice were injected subcutaneously with MCF-7 breast tumor cells and the tumors were allowed to reach a median volume of 75 mm^3. […] The control group received normal saline. The animals were weighed and tumors were measured twice weekly after administration of the first drug injection."}, "HT29 tumor fragments": {"tested_on": "HT29 tumor fragments", "assay": "HT29 colorectal tumor xenograft, monotherapy study (Example 21)", "format": "in vivo", "details": "for Tumor growth delay: HT29, all three doses tested (40, 60, or 90 mg/kg); for tolerability: all doses", "description": "HT29 tumor fragments were implanted into female, athymic nude mice in the monotherapy study. […]. Animals were weighed and tumor volumes measured twice weekly after the first drug injection in both studies."}, "[2]": {"tested_on": "Human HT29 colon tumor xenografts", "assay": "HT29 colon tumor xenograft, anti-tumor activity (Examples 2 and 6)", "details": "HT29 colon tumors, 3 doses; for delay in tumor growth (anti-tumor activity) compared to the control: 60 mg/kg IV every 4 days", "protocol": "Human HT29 colon tumor xenografts were subcutaneously implanted in athymic nude mice. After about two weeks of adequate tumor growth (100 to 250 mg), these animals were divided into different groups of ten mice each. […] Doses were administered intravenously, with one dose administered every 4 days for a total of 3 administered doses. The mice were observed daily and the tumors were measured with calipers twice a week.\nAthymic nude mice were implanted subcutaneously with human cancer cell lines (lung cancer cell line NCl-H460, and colon cancer cell line HT-29) and the tumors allowed to grow to approximately 150 mg in size. The animals were divided into groups of ten mice each.\nTumor volume measurements were taken over a period of 60-80 days; tumor volumes were converted to tumor weight. Body weights were also measured over the same period to provide an indication of weight loss."}, "[3]": {"assay": "PK/PD study in HT29 colon tumor model (plasma and tumor AUC, t½)", "details": "40 mg/kg IV q4d x3, Day 1 AUC"}, "[4]": {"assay": "PK/PD study in NCl-H460 lung tumor model (plasma and tumor AUC, t½)", "details": "Day 1 AUC"}, "[5]": {"assay": "Toxicity: maximum tolerated dose and side-effects in rat and dog (FIG. 22)", "format": "in vivo", "protocol": "(§1) Additional illustrative in-vivo studies were carried out as described previously herein or in accordance with methods well-known to one having ordinary skill in the art."}, "[6]": {"assay": "Diarrhea episodes in dogs (FIG. 23)", "format": "in vivo", "protocol": "as §1"}, "neutrophils": {"tested_on": "neutrophils", "assay": "Neutropenia in dogs, 4-arm-PEG-GLY-IRINO-20K vs irinotecan (FIG. 21)", "format": "in vivo", "protocol": "as §1"}, "[7]": {"assay": "Plasma levels of SN-38 in dogs (FIG. 24)", "format": "in vivo", "protocol": "as §1"}, "[8]": {"assay": "Exposure to SN-38 in HT-29 colorectal tumors in mice (FIG. 20)", "format": "in vivo", "protocol": "as §1"}, "[9]": {"details": "rodents"}, "[10]": {"details": "single dose, following PEG-Irinotecan administration"}}}
{"compound": "CC(=O)O[C@@]12CO[C@@H]1C[C@H](O)[C@@]1(C)C(=O)[C@H](O)C3=C(C)[C@@H](OC(=O)[C@H](O)[C@@H](NC(=O)OC(C)(C)C)c4ccccc4)C[C@@](O)([C@@H](OC(=O)c4ccccc4)[C@H]21)C3(C)C", "note": "[docetaxel]", "values": [{"measurement": "time after which tumors did recover and grow", "setting": "DU-145 prostate tumors", "value": "30 to 50", "unit": "days"}, {"measurement": "anti-tumor effect on tumor growth", "setting": "DU-145 prostate tumors; all 3 doses tested, 78 day observation period", "value": "good activity"}, {"measurement": "MTD at 78 day", "setting": "[1]", "value": "≤ 30", "unit": "mg/kg"}, {"measurement": "MTD", "setting": "in vivo", "value": "≤ 30", "unit": "mg/kg"}]}
{"compound": "CCc1c2c(nc3ccc(OC(=O)N4CCC(N5CCCCC5)CC4)cc13)-c1cc3c(c(=O)n1C2)COC(=O)[C@]3(O)CC", "note": "[irinotecan, 7-ethyl-10[4-(1-piperidino)-1-piperidino] carbonyloxy CPT, reference compound]", "values": [{"measurement": "Days to 4 Times Tumor Size", "setting": "MCF-7 breast tumor cells; 20 mg/kg per dose x3", "value": 40.2, "unit": "days"}, {"measurement": "Tumor Regression Complete", "setting": "MCF-7 breast tumor cells; 20 mg/kg per dose x3", "value": 0}, {"measurement": "Tumor Regression Partial", "setting": "MCF-7 breast tumor cells; 20 mg/kg per dose x3", "value": 0}, {"measurement": "Median Duration", "setting": "MCF-7 breast tumor cells; 40 mg/kg per dose x3", "value": 42.0, "unit": "days"}, {"measurement": "Days to 4 Times Tumor Size", "setting": "MCF-7 breast tumor cells; 40 mg/kg per dose x3", "value": 42.8, "unit": "days"}, {"measurement": "Tumor Regression Complete", "setting": "MCF-7 breast tumor cells; 40 mg/kg per dose x3", "value": 0}, {"measurement": "Tumor Regression Partial", "setting": "MCF-7 breast tumor cells; 40 mg/kg per dose x3", "value": 1}, {"measurement": "Tumor growth delay", "setting": "HT29 tumor fragments; q4 d×3", "value": "0.3 to 1.6", "unit": "days"}, {"measurement": "tolerability", "setting": "HT29 tumor fragments", "value": "well tolerated"}, {"measurement": "delay in tumor growth (anti-tumor activity) compared to the control", "setting": "[2]", "value": "significantly improved when compared to the control"}, {"measurement": "Exposure (AUC) of Irinotecan, Plasma", "setting": "[3]", "value": 0.3, "unit": "µg·days/mL"}, {"measurement": "Exposure (AUC) of SN38, Plasma", "setting": "[3]", "value": 0.01, "unit": "µg·days/mL"}, {"measurement": "Exposure (AUC) of Irinotecan, Plasma", "setting": "[4]", "value": 0.5, "unit": "µg·days/mL"}, {"measurement": "Exposure (AUC) of SN38, Plasma", "setting": "[4]", "value": 0.2, "unit": "µg·days/mL"}]}
{"compound": "Pentaerythritolyl-4-Arm-(PEG-1-Methylene-2Oxo-Vinylamino Acetate Linked-Irinotecan)-20K [4-arm-PEG-GLY-IRINO-20K]", "values": [{"measurement": "T − C", "setting": "MCF-7 breast tumor cells; 20 mg/kg per dose x3", "value": ">52", "unit": "days"}, {"measurement": "Days to 4 Times Tumor Size", "setting": "MCF-7 breast tumor cells; 20 mg/kg per dose x3", "value": ">72", "unit": "days"}, {"measurement": "Tumor Regression Complete", "setting": "MCF-7 breast tumor cells; 20 mg/kg per dose x3", "value": 0}, {"measurement": "Tumor Regression Partial", "setting": "MCF-7 breast tumor cells; 20 mg/kg per dose x3", "value": 0}, {"measurement": "Median Duration", "setting": "MCF-7 breast tumor cells; 40 mg/kg per dose x3", "value": 22.0, "unit": "days"}, {"measurement": "T − C", "setting": "MCF-7 breast tumor cells; 40 mg/kg per dose x3", "value": ">52", "unit": "days"}, {"measurement": "Days to 4 Times Tumor Size", "setting": "MCF-7 breast tumor cells; 40 mg/kg per dose x3", "value": ">72", "unit": "days"}, {"measurement": "Tumor Regression Complete", "setting": "MCF-7 breast tumor cells; 40 mg/kg per dose x3", "value": 0}, {"measurement": "Tumor Regression Partial", "setting": "MCF-7 breast tumor cells; 40 mg/kg per dose x3", "value": 1}, {"measurement": "T − C", "setting": "MCF-7 breast tumor cells; 60 mg/kg per dose x3", "value": ">52", "unit": "days"}, {"measurement": "Days to 4 Times Tumor Size", "setting": "MCF-7 breast tumor cells; 60 mg/kg per dose x3", "value": ">72", "unit": "days"}, {"measurement": "Tumor Regression Complete", "setting": "MCF-7 breast tumor cells; 60 mg/kg per dose x3", "value": 0}, {"measurement": "Tumor Regression Partial", "setting": "MCF-7 breast tumor cells; 60 mg/kg per dose x3", "value": 0}, {"measurement": "T − C", "setting": "MCF-7 breast tumor cells; 90 mg/kg per dose x3", "value": ">52", "unit": "days"}, {"measurement": "Tumor Regression Partial", "setting": "MCF-7 breast tumor cells; 90 mg/kg per dose x3, <50% of size observed on Day 1", "value": 1}, {"measurement": "Median Duration", "setting": "MCF-7 breast tumor cells; 90 mg/kg per dose x3, interval regressed tumor below 50% pretreatment size", "value": 49.0, "unit": "days"}, {"measurement": "Days to 4 Times Tumor Size", "setting": "MCF-7 breast tumor cells; 90 mg/kg per dose x3", "value": ">72", "unit": "days"}, {"measurement": "Tumor Regression Complete", "setting": "MCF-7 breast tumor cells; 90 mg/kg per dose x3, unpalpable", "value": 0}, {"measurement": "T-C value compared with irinotecan treatment groups", "setting": "MCF-7 breast tumor cells; all 4 dose levels, p<0.001", "value": "significantly higher"}, {"measurement": "tumor regrowth", "setting": "MCF-7 breast tumor cells; any dose level (FIG. 15A)", "value": "No tumor regrowth occurred"}, {"measurement": "maximum tolerated dose (MTD) compared to irinotecan", "setting": "[5]; FIG. 22, rat and dog", "value": "significantly higher"}, {"measurement": "occurrence and/or extent and/or severity of side-effects such as neutropenia and diarrhea vs irinotecan", "setting": "[5]; equivalent doses (FIG. 23)", "value": "reduced"}, {"measurement": "complete tumor regression (animals)", "setting": "HT29 tumor fragments; HT29, 90 mg/kg dose, q4 d×3", "value": "3/10"}, {"measurement": "partial tumor regression (animals)", "setting": "HT29 tumor fragments; HT29, 90 mg/kg dose, q4 d×3", "value": "1/10"}, {"measurement": "Tumor growth delay", "setting": "HT29 tumor fragments; q4 d×3", "value": "20.9 to 60.2", "unit": "days"}, {"measurement": "tumor growth inhibition compared to irinotecan", "setting": "HT29 tumor fragments; HT29 human colorectal tumor xenograft model", "value": "more effectively than irinotecan"}, {"measurement": "tolerability", "setting": "HT29 tumor fragments", "value": "well tolerated"}, {"measurement": "t½ of PEG-Irinotecan, species comparison", "setting": "in vivo", "value": "Dog > rat ="}, {"measurement": "exposure to irinotecan and SN38 vs dosing with irinotecan per se", "setting": "single dose, all species examined", "value": "sustained and greater exposure"}, {"measurement": "AUC of PEG-Irinotecan, species comparison", "setting": "[10]", "value": "mouse < rat < dog"}, {"measurement": "AUC of SN38, species comparison", "setting": "[10]", "value": "mouse >> rat >> dog"}, {"measurement": "Cmax of PEG-Irinotecan, species comparison", "setting": "[10]", "value": "mouse < rat < dog"}, {"measurement": "Cmax of SN38, species comparison", "setting": "[10]", "value": "Mouse >> rat >> dog"}, {"measurement": "diarrhea episodes compared to irinotecan", "setting": "[6]", "value": "fewer diarrhea episodes"}, {"measurement": "delay in tumor growth compared to unconjugated irinotecan", "setting": "[2]; 60 mg/kg (irinotecan content) IV every 4 days", "value": "significantly better"}, {"measurement": "delay in tumor growth (anti-tumor activity) compared to the control", "setting": "[2]", "value": "significantly improved when compared to the control"}, {"measurement": "neutropenia compared to irinotecan at an equivalent dose", "setting": "neutrophils", "value": "reduced neutropenia"}, {"measurement": "plasma levels of SN-38 compared to unmodified irinotecan", "setting": "[7]", "value": "elevated and sustained over a longer period of time"}, {"measurement": "Exposure (AUC) of Irinotecan, Plasma", "setting": "[3]", "value": 1.5, "unit": "µg·days/mL"}, {"measurement": "Exposure (AUC) of PEG-Irinotecan, Plasma", "setting": "[3]", "value": 2143, "unit": "µg·days/mL"}, {"measurement": "Exposure (AUC) of PEG-SN38, Plasma", "setting": "[3]", "value": 784, "unit": "µg·days/mL"}, {"measurement": "Exposure (AUC) of SN38, Plasma", "setting": "[3]", "value": 5.8, "unit": "µg·days/mL"}, {"measurement": "Exposure (AUC) of Irinotecan, Plasma", "setting": "[4]", "value": 2.0, "unit": "µg·days/mL"}, {"measurement": "Exposure (AUC) of PEG-Irinotecan, Plasma", "setting": "[4]", "value": 1213, "unit": "µg·days/mL"}, {"measurement": "Exposure (AUC) of PEG-SN38, Plasma", "setting": "[4]", "value": 229, "unit": "µg·days/mL"}, {"measurement": "Exposure (AUC) of SN38, Plasma", "setting": "[4]", "value": 2.6, "unit": "µg·days/mL"}, {"measurement": "exposure to SN-38 in colorectal tumors in comparison to irinotecan", "setting": "[8]", "value": "two to three times logarithmic increase"}, {"measurement": "SN38 levels and AUCs after PEG-Irinotecan", "setting": "[9]", "value": "very high AUCs"}]}
